Assay [1] in a line: Inhibition of Sporosarcina pasteurii CCM 2056 urease using urea as substrate after 10 mins by indophenol blue detection based phenol-hypochlorite method.
A short description of assay [2]: Inhibition of Sporosarcina pasteurii CCM 2056 urease using urea as substrate preincubated for 2 hrs by indophenol blue detection based phenol-hypochlorite method.
Assay [3] in a line: Inhibition of Proteus mirabilis PCM543 urease using urea as substrate preincubated for 2 hrs by indophenol blue detection based phenol-hypochlorite method.
In a further assay the test system is Proteus mirabilis. Description: Antimicrobial activity against Proteus mirabilis PCM543 assessed as inhibition of microbial proliferation preincubated for 2 hrs by MTT assay. The assay is classed as functional.
Assay [4] in a line: Mixed type inhibition of Sporosarcina pasteurii CCM 2056 urease using urea as substrate preincubated for 2 hrs by indophenol blue detection based phenol-hypochlorite method.
The test system of assay [5] is Sporosarcina pasteurii. The experiment in a line: Slow binding inhibition of Sporosarcina pasteurii CCM 2056 urease assessed as dissociation rate constant using urea as substrate after 120 mins by indophenol blue detection based phenol-hypochlorite method.
The subject of assay [6] is Sporosarcina pasteurii. The experiment in a line: Slow binding inhibition of Sporosarcina pasteurii CCM 2056 urease assessed as residence time using urea as substrate after 120 mins by indophenol blue detection based phenol-hypochlorite method.

Structures are written as SMILES.

For the compound `COC(=O)/C(=C/c1ccc(C)cc1)CCCP(=O)(O)O`, the concentration for half-maximal inhibition (IC50) in assay [1] worked out at 265 µM; in assay [2], 248 µM; in assay [3], 1430 µM. The LC50 in the assay with Proteus mirabilis is 292 µM. Further, in assay [4], the Ki stood at 227 µM.

Regarding `COC(=O)/C(=C/c1ccccc1)CCCP(=O)(O)O`, the values for the IC50 in assay [1], in assay [2] and in assay [3] were 449 µM, 328 µM and 1590 µM, respectively. Moreover, in the assay on Proteus mirabilis, the LC50 was 556 µM. Further, the inhibition constant Ki in assay [4] was found to be 289 µM.

Consider `O=C(O)/C(=C/c1ccc(Cl)cc1)CCCP(=O)(O)O`, for which the results for the 50% inhibitory concentration (IC50) in assay [1], in assay [2] and in assay [3] were 2.49 µM, 1.62 µM and 18.6 µM, respectively. Further, the LC50 with Proteus mirabilis worked out at 122 µM. The compound further registered a Ki in assay [4] of 1.43 µM.

As for `O=C(O)/C(=C/c1ccc(Cl)cc1)CCCCP(=O)(O)O`, the IC50 in assay [1] amounted to 5.83 µM; in assay [2], 2.34 µM; in assay [3], 22.2 µM. In the assay on Proteus mirabilis, the LC50 is 435 µM. In assay [4], this compound gave a Ki of 1.75 µM.

With `COC(=O)/C(=C/c1ccc(F)cc1)CCCP(=O)(O)O`, the IC50 came to 221 µM in assay [1], 105 µM in assay [2] and 735 µM in assay [3]. Moreover, the LC50 in the assay with Proteus mirabilis was 215 µM. This compound displayed a Ki in assay [4] of 87.2 µM.

As to `COC(=O)/C(=C/c1ccccc1)CCCCP(=O)(O)O`, the IC50 in assay [1] stood at 55 µM; in assay [2], 54 µM; in assay [3] it was 476 µM. Moreover, in the assay with Proteus mirabilis, the LC50 was 469 µM. Besides, the Ki in assay [4] was 50.5 µM.

For `Cc1ccc(/C=C(\CCCCP(=O)(O)O)C(=O)O)cc1`, the IC50 in assay [1] amounted to 9.24 µM; in assay [2], 8.53 µM; in assay [3], 52.6 µM. Moreover, in the assay on Proteus mirabilis, the LC50 worked out at 49.8 µM. Besides, in assay [4], the Ki was determined as 7.21 µM.

With `O=C(O)/C(=C/c1ccccc1)CCCCP(=O)(O)O`, the IC50 was 4.89 µM in assay [1], 3.83 µM in assay [2] and 32.6 µM in assay [3]. Further, the LC50 in the assay on Proteus mirabilis was 97.6 µM. Moreover, in assay [4], the Ki came out at 3.51 µM.

For `O=C(O)/C(=C/c1ccc(F)cc1)CCCP(=O)(O)O`, the results for the IC50 in assay [1], in assay [2] and in assay [3] were 4.9 µM, 3.82 µM and 38 µM, respectively. Moreover, the LC50 in the assay on Proteus mirabilis stood at 121 µM. This compound also had a Ki in assay [4] of 1.8 µM.

With `Cc1ccc(/C=C(\CCCP(=O)(O)O)C(=O)O)cc1`, the IC50 came to 30 µM in assay [1], 24.6 µM in assay [2] and 156 µM in assay [3]. Further, the median lethal concentration (LC50) in the assay on Proteus mirabilis amounted to 139 µM. The Ki in assay [4] turned out to be 19.4 µM.

Regarding `COC(=O)/C(=C/c1ccc(Cl)cc1)CCCCP(=O)(O)O`, the values for the IC50 in assay [1], in assay [2] and in assay [3] were 58.3 µM, 6.35 µM and 27.4 µM, respectively. Moreover, the LC50 in the assay with Proteus mirabilis was 638 µM. In the assay with Sporosarcina pasteurii [5], the K was 0.00206 s⁻¹. Further, in the assay on Sporosarcina pasteurii [6], the TIME was determined as 0.135 h. The same compound gave a Ki in assay [4] of 4.71 µM.

Consider `COc1ccc(/C=C(\CCCCP(=O)(O)O)C(=O)O)cc1`, for which the IC50 is 16.6 µM in assay [1], 14.5 µM in assay [2] and 114 µM in assay [3]. Moreover, in the assay on Proteus mirabilis, the LC50 amounted to 28.6 µM. In assay [4], this compound gave a Ki of 9.31 µM.

As to `O=C(O)/C(=C/c1ccccc1)CCCP(=O)(O)O`, the IC50 in assay [1] amounted to 3.1 µM; in assay [2], 0.743 µM; in assay [3], 11 µM. Moreover, the LC50 with Proteus mirabilis was 135 µM. For the same compound, the K in the assay on Sporosarcina pasteurii [5] was found to be 0.000682 s⁻¹. Further, the TIME in the assay with Sporosarcina pasteurii [6] was 0.407 h. The Ki in assay [4] is 0.509 µM.

Take `COC(=O)/C(=C/c1ccc(OC)cc1)CCCCP(=O)(O)O`: the IC50 is 24.5 µM in assay [1], 22.6 µM in assay [2] and 162 µM in assay [3]. For the same compound, the median lethal concentration (LC50) with Proteus mirabilis was 160 µM. Further, the Ki in assay [4] is 21.4 µM.

For `COc1ccc(/C=C(\CCCP(=O)(O)O)C(=O)O)cc1`, the results for the IC50 in assay [1], in assay [2] and in assay [3] were 10 µM, 4.98 µM and 39.7 µM, respectively. In addition, in the assay with Proteus mirabilis, the LC50 was 65.2 µM. In assay [4], this compound had a Ki of 3.4 µM.

Consider `O=C(O)/C(=C/c1ccc(F)cc1)CCCCP(=O)(O)O`, for which the IC50 in assay [1] was found to be 9.98 µM; in assay [2] it was 2.91 µM; in assay [3], 14.1 µM. For the same compound, in the assay on Proteus mirabilis, the LC50 is 192 µM. Also, the K in the assay on Sporosarcina pasteurii [5] was 0.00135 s⁻¹. For the same compound, the TIME in the assay on Sporosarcina pasteurii [6] was found to be 0.206 h. This compound registered a Ki in assay [4] of 2.58 µM.

As for `COC(=O)/C(=C/c1ccc(C)cc1)CCCCP(=O)(O)O`, the IC50 came to 294 µM in assay [1], 261 µM in assay [2] and 1550 µM in assay [3]. Further, the LC50 with Proteus mirabilis was 659 µM. This compound showed a Ki in assay [4] of 219 µM.

`COC(=O)/C(=C/c1ccc(Cl)cc1)CCCP(=O)(O)O`: the IC50 was found to be 109 µM in assay [1], 49.8 µM in assay [2] and 521 µM in assay [3]. For the same compound, the LC50 with Proteus mirabilis was 89.6 µM. This compound also had a Ki in assay [4] of 42.5 µM.

With `COC(=O)/C(=C/c1ccc(F)cc1)CCCCP(=O)(O)O`, the IC50 in assay [1] was 164 µM; in assay [2], 130 µM; in assay [3] it was 630 µM. The LC50 with Proteus mirabilis worked out at 1060 µM. The compound further gave a Ki in assay [4] of 116 µM.

For `COC(=O)/C(=C/c1ccc(OC)cc1)CCCP(=O)(O)O`, the concentration for half-maximal inhibition (IC50) in assay [1] stood at 35.3 µM; in assay [2] it was 10.8 µM; in assay [3], 75.1 µM. Besides, the 50% lethal concentration (LC50) in the assay on Proteus mirabilis came to 236 µM. Also, the K in the assay with Sporosarcina pasteurii [5] was 0.00244 s⁻¹. Also, the TIME in the assay with Sporosarcina pasteurii [6] was determined as 0.114 h. In assay [4], this compound yielded a Ki of 6.04 µM.

The record behind these values is ChEMBL document CHEMBL4265986, “Structural exploration of cinnamate-based phosphonic acids as inhibitors of bacterial ureases” (Eur J Med Chem, 2018).
